One assay addresses T1, COX-1 murine (Mus musculus, UniProt P22437).
T1 construct: A 2.0 kb fragment containing the coding region of either human or murine COX-1; made in house; host or cells: SF9 insect cells (recombinant baculovirus, vector pVL1393)
T1 sequence (P22437 27-602): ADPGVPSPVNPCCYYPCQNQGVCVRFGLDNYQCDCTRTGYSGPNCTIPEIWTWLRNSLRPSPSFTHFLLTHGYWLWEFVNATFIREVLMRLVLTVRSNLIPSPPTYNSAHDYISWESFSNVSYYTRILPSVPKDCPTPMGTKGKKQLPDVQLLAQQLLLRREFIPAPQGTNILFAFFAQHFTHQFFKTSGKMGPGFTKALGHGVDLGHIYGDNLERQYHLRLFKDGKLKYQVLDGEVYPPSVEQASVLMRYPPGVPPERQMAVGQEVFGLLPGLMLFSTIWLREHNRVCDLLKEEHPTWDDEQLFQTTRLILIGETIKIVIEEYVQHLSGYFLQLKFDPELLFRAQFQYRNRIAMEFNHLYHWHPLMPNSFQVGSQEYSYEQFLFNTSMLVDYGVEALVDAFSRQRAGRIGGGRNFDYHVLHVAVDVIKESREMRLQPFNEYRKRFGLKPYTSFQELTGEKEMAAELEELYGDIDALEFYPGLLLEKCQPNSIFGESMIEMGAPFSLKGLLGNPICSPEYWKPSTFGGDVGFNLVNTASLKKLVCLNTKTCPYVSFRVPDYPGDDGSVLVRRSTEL
The assay can be described thus: COX-1 activity in vitro (recombinant enzyme, PGE2 ELISA). The format is biochemical. The following applies: arachidonic acid 10 μM, pH 8.0, pre-incubation 10-20 min, read-out: COX-1 murine ID50. Here is the method: (§1) Evaluation of COX-1 and COX-2 activity in vitro
(§2) The COX-2 inhibition activity of the compounds of this invention illustrated in the Examples was determined by the following methods.
(§3) a. Preparation of recombinant COX baculoviruses
(§4) Recombinant COX-1 and COX-2 were prepared as described by Gierse et al, [J. Biochem., 305, 479-84 (1995)]. A 2.0 kb fragment containing the coding region of either human or murine COX-1 or human or murine COX-2 was cloned into a BamH1 site of the baculovirus transfer vector pVL1393 (Invitrogen) to generate the baculovirus transfer vectors for COX-1 and COX-2 in a manner similar to the method of D. R. O'Reilly et al (Baculovirus Expression Vectors: A Laboratory Manual (1992)). Recombinant baculoviruses were isolated by transfecting 4 μg of baculovirus transfer vector DNA into SF9 insect cells (2×10^8) along with 200 ng of linearized baculovirus plasmid DNA by the calcium phosphate method. See M. D. Summers and G. E. Smith, A Manual of Methods for Baculovirus Vectors and Insect Cell Culture Procedures, Texas Agric. Exp. Station Bull. 1555 (1987). Recombinant viruses were purified by three rounds of plaque purification and high titer (10^7 -10^8 pfu/ml) stocks of virus were prepared. For large scale production, SF9 insect cells were infected in 10 liter fermentors (0.5×10^6 /ml) with the recombinant baculovirus stock such that the multiplicity of infection was 0.1. After 72 hours the cells were centrifuged and the cell pellet homogenized in Tris/Sucrose (50 mM: 25%, pH 8.0) containing 1% 3-[(3-cholamidopropyl)dimethylammonio]-1-propanesulfonate (CHAPS). The homogenate was centrifuged at 10,000×G for 30 minutes, and the resultant supernatant was stored at -80° C. before being assayed for COX activity.
(§5) b. Assay for COX-1 and COX-2 activity:
(§6) COX activity was assayed as PGE2 formed/μg protein/time using an ELISA to detect the prostaglandin released. CHAPS-solubilized insect cell membranes containing the appropriate COX enzyme were incubated in a potassium phosphate buffer (50 mM, pH 8.0) containing epinephrine, phenol, and heme with the addition of arachidonic acid (10 μM). Compounds were pre-incubated with the enzyme for 10-20 minutes prior to the addition of arachidonic acid. Any reaction between the arachidonic acid and the enzyme was stopped after ten minutes at 37° C./room temperature by transferring 40 μl of reaction mix into 160 μl ELISA buffer and 25 μM indomethacin. The PGE2 formed was measured by standard ELISA technology (Cayman Chemical).
Background: ELISA stands for enzyme-linked immunosorbent assay.

In the next assay the target is T2, COX-2 murine (Mus musculus, UniProt Q05769).
T2 construct: human or murine COX-2 was cloned into a BamH1 site of the baculovirus transfer vector pVL1393; made in house; host or cells: SF9 insect cells (recombinant baculovirus, vector pVL1393)
T2 sequence (Q05769 18-604): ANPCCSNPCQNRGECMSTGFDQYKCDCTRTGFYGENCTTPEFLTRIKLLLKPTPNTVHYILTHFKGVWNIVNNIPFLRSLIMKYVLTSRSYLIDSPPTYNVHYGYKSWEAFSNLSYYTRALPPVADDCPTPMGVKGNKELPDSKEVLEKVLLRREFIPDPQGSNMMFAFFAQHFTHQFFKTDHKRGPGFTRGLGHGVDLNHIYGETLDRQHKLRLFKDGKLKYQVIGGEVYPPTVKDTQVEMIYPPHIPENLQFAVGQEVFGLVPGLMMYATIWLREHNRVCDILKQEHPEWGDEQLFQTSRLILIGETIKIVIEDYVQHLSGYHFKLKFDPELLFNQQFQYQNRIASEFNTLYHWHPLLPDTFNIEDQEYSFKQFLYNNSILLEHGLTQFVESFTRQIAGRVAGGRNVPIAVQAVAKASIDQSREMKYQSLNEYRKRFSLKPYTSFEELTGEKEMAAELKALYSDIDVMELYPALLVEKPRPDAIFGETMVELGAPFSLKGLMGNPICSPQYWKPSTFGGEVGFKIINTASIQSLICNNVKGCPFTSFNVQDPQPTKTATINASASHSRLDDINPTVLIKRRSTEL
The assay can be described thus: COX-2 activity in vitro (recombinant enzyme, PGE2 ELISA). It counts as biochemical. On the procedure: as §1, §2, §3, §4, §5, §6

Where [1] appears, read: COX-2 murine, arachidonic acid 10 μM, pH 8.0, pre-incubation 10-20 min, read-out: COX-2 murine ID50.

Consider four molecules from patent US5596008A, “3,4-Diaryl substituted pyridines for the treatment of inflammation” (G. D. Searle & Co., priority 1995, dated 1997).

The structures appear in SMILES notation. Like-named read-outs stand apart in the source and are kept apart here.

In the case of `C#CCOc1cc(-c2ccc(S(C)(=O)=O)cc2)c(-c2ccc(F)cc2)c(C(F)(F)F)n1` [Example 3, 5-(4-Fluorophenyl)-4-[4-(methylsulfonyl)phenyl]-2-(2-propynyloxy)-6-(trifluoromethyl)pyridine], the IC50 on COX-1 murine is 200 nM; at COX-2 murine it was over 30000 nM.

Take `CS(=O)(=O)c1ccc(-c2cc(Br)nc(C(F)(F)F)c2-c2ccc(F)cc2)cc1` [Example 4, 2-Bromo-5-(4-fluorophenyl)-4-[4-(methylsulfonyl)phenyl]-6-(trifluoromethyl)pyridine]: the IC50 on COX-1 murine was 600 nM; on COX-2 murine (setting [1]), over 100000 nM.

With `CCOc1cc(-c2ccc(S(C)(=O)=O)cc2)c(-c2ccc(F)cc2)c(C(F)(F)F)n1` [Example 2, 2-Ethoxy-5-(4-fluorophenyl)-4-[4-(methylsulfonyl)phenyl]-6-(trifluoromethyl)pyridine], the IC50 on COX-1 murine is 300 nM; on COX-2 murine (setting [1]), over 30000 nM.

Turning to `COc1cc(-c2ccc(S(C)(=O)=O)cc2)c(-c2ccc(F)cc2)c(C(F)(F)F)n1` [Example 1, 5-(4-Fluorophenyl)-2-methoxy-4-[4-(methylsulfonyl)phenyl]-6-(trifluoromethyl)pyridine], the values for the IC50 at COX-1 murine and at COX-2 murine (setting [1]) were 300 nM and over 30000 nM, respectively.
